Source: patent US20260224475A1, “MULTI-COMPONENT INTRAVAGINAL RING” (priority 2023, published 2026)
Like-named read-outs stand apart in the source and are kept apart here.

Columns and labels:
human sperm [1] = assay: Sperm-Cervical Mucus Penetration Test (SMPT) in methylcellulose; format: cell-based
N. gonorrhoeae = assay: Minimal cidal concentration (MCC); format: cell-based; details: for MCC: 30 minutes exposure, >3 log decrease in CFU considered cidal
human sperm [2] = assay: Sperm motility assay; format: cell-based; details: for Average Motility Reduction: average of nine 3-API checkerboard combinations containing the named API at this dose; for Average CI: average of nine 3-API combinations
Method: Fresh human sperm samples were obtained the day of the experiment. 100 mM stock solutions of each API in saline were prepared in advance. Immediately prior to the experiment, solutions of each API concentration to be tested were prepared via dilution with saline. These include solutions of multiple APIs added together.
The effect of each API on sperm motility and viability was determined using human donors, adding 200 μL of API's diluted in sterile saline to 50 μL of fresh semen. For motility assessments, the incubation mixture was incubated for 5 minutes and then 100 sperm were counted under the microscope by two andrology-trained researchers and classified as either non-motile or motile. If motile, the sperm were further classified according to the nature of their motility—from barely twitching with no forward progression to progressively motile. Each experiment was repeated at least three times on different days using different donors to account for natural variations in sperm properties.
The % motility for each experimental condition was calculated by normalizing the fraction of motile sperm in the experimental groups to the fraction of motile sperm in the saline control treated group, setting 100% to the average fraction of motile sperm from control experiments. For example, the % motility at concentration c would be:
Once % motility data was obtained, the synergy was measured with Compusyn software. See Chou et al., CompuSyn for drug combinations: PC software and user's guide: a computer program for quantitation of synergism and antagonism in drug combinations, and the determination of IC50. ED50 and LD50 values, which is incorporated herein by reference in its entirety. Motility data for individual API concentration as well as all double and triple API solutions was entered into the program and analyzed according to the Chou-Talalay Median Effect Principle.
Next, the synergy between each of the APIs was tested to determine if there were any synergistic effects between compounds which would allow for reduced dosages. Each of the three possible two-compound combinations were tested, followed by the combination of all three APIs. […] Synergy was calculated with Compusyn using the Chou-Talalay Median Effect approach and represented as a CI (Combination Index) value. […] The smaller the CI value for a combination, the greater the degree of synergy.
After the two-API combinations were complete, the full three-way synergy was tested using a 3×3×3 checkerboard style assay to test all 27 permutations of three chosen concentrations for each of the three APIs.
From the resulting data, the estimated effects of each of the individual API were isolated by averaging % reduction in motility and the CI values for each of the API concentrations tested. With this 3×3×3 checkerboard assay, each single concentration was tested against nine permutations of the other two APIs, meaning that each cell in Table 4 represents the average of the nine combinations involving the specified API concentration.
Synergy was calculated utilizing the Chou-Talalay median effect principle and Compusyn software which quantifies synergy as a combination index (CI) for each combination. A CI<1 signifies synergy, a CI>1 signifies antagonism and a CI=1 signifies a purely additive effect.

VEC-100 tissue [3] = assay: VEC-100 tissue, repeated exposure (1 hr daily for 5 days; viability, TEER); format: cell-based; details: for Non-toxic concentrations in VEC-100 model TEER and LDH 5 daily exposures: multiple treatments
Ectocervical explants = details: for Non-toxic concentrations in ectocervix MTT and histology 24 hr: single treatment
Method: Kruskal-Wallis test with Dunn's multiple comparison) (FIG. 22).
In FIG. 23, ectocervical explants were incubated with the selected concentrations of the APIs for 24 hr in the presence or absence of 5% VF. Explants were fixed, paraffin embedded, sectioned and stained with H&E.
Ectocervical explants were exposed to the APIs 24 hr in the presence or absence of 5% VF. Supernatants were collected and analyzed for pro-inflammatory cytokines.

C. trachomatis = assay: Bactericidal activity against C. trachomatis (inclusion count in HeLa cells); format: cell-based; details: for inhibition of C. trachomatis infection (in words): absence or presence of 2% VF and 20% SF, 2 hours at room temperature, LA 80 mM
Method: C. trachomatis was incubated with actives ±2% VF and 20% SF for 2 hours at room temperature. The mixtures were serially diluted 1/10 in SPG solution, applied on HeLa cells in triplicate. Images were acquired using the Cytation-5 instrument and the inclusion count was analyzed using the Gen5 software in the Cytation-5. Control conditions included HeLa cells challenged with C. trachomatis in the absence of the actives. (FIG. 15).

HSV-2 G = assay: HSV-2 plaque reduction assay; format: cell-based; details: 30 min pre-incubation with HSV-2 G in saline, read-out: EC50 (95% confidence interval)
Method: The HSV-2 plaque reduction assay was performed to test the anti-HSV-2 activity of ZA, CS and LA. […] Virus controls containing HSV-2 in saline were incubated under the same conditions. After incubation all dilutions and controls were diluted 1/10 in DMEM and tittered using the plaque assay. FIG. 12 and Table 10 show the results. […] The data represented the average of two independent experiments. In Table 10, the molar ratio of CS:LA:ZA in ZS-CA-LA is 1:20:100.

G. vaginalis = assay: Minimal cidal concentration (MCC); format: cell-based; details: 30 minutes exposure; >3 log decrease in CFU considered cidal
VEC-100 tissue [4] = system: VEC-100 tissue
Method: VEC-100 tissues were incubated with APIs for 24 hr. Tissue viability was analyzed by MTT and LDH assay and TEER measurements were recorded.

HIV-1BaL = assay: MAGI assay, anti-HIV-1BaL activity in TZMbl cells; format: cell-based; details: read-out: EC50 (95% confidence interval)
Method: MAGI assay was performed to test anti-HIV-1BaL activity. […] Virus controls containing HIV-1BaL in saline were incubated under the same conditions. Following incubation, API-HIV-1BaL mixture was diluted 10-fold and added to TZMbl cells. Following 72-hour incubation, the cells were washed and stained with X-gal and fixed. […] Infected cells were counted using CTL instrument.

lactobacillus = assay: Non-cidal concentrations in lactobacillus (MCC 30 min); format: cell-based
[5] = Dose 1 (CS 2.95, ZA 4.75, LA 10.26 mM)
[6] = Dose 2 (CS 3.94, ZA 6.34, LA 13.70 mM)
[7] = Dose 3 (CS 5.90, ZA 9.51, LA 20.54 mM)
[8] = single API, 30 min pre-incubation with virus in saline, 10-fold dilution, 72 h on TZMbl cells

Compound: CC(O)C(=O)[O-].CC(O)C(=O)[O-].[Zn+2] (stereo not shown) [ZL, zinc lactate]
- EC90 (human sperm [1]; Table 16, concentration of the named API in the CS + ZL + LA combination (cf. Table 7), read-out: Anti-Sperm concentrations Sperm-mucus penetration (EC90)): 5 mM
- EC90 (human sperm [1]; Table 18, concentration of the named API in the CS + ZL + LA combination, read-out: Anti-Sperm concentrations Sperm-mucus penetration (EC90)): 5 mM
- EC90 (human sperm [1]; single API, 1% methylcellulose, 30 minutes, read-out: Inhibition of Sperm Mucus Penetration EC90 [95% CI] (Migration of vanguard sperm in methyl cellulose spiked with API)): 13 mM
- MCC 10% AB Serum (N. gonorrhoeae): >100 mM
- MCC 30% AB Serum (N. gonorrhoeae): >100 mM
- MCC No Serum (N. gonorrhoeae): >100 mM
- inhibitory activity (in words) (N. gonorrhoeae; ± human serum): not inhibitory
- EC90 (human sperm [2]; Table 16, concentration of the named API in the CS + ZL + LA combination (cf. Table 7), read-out: Anti-Sperm concentrations Total motility (EC90)): 22 mM
- EC90 (human sperm [2]; Table 18, concentration of the named API in the CS + ZL + LA combination, read-out: Anti-Sperm concentrations Total motility (EC90)): 22 mM
- MIC (concentration to inhibit progressive sperm motility) (human sperm [2]; single API): 30 mM
- EC50 (human sperm [2]; single API (CS/ZL/LA study)): 45 mM
- EC90 (human sperm [2]; single API (CS/ZL/LA study), read-out: EC90): 94 mM
- EC90 (human sperm [2]; single API, read-out: Reduction of Sperm Motility EC90 [95% CI] (concentration to inhibit total sperm motility)): 94 mM
- VEC-100 single exposure (MTT, TEER and LDH) day 1-5 24 h No VF (VEC-100 tissue [3]; 10 mM): No Tox
- VEC-100 single exposure (MTT, TEER and LDH) day 1-5 24 h No VF (VEC-100 tissue [3]; 21 mM): No Tox
- Non-toxic concentrations in VEC-100 model TEER and LDH 5 daily exposures (VEC-100 tissue [3]): 21 mM
- Ectocervix: single exposure (MTT, Histology, CC) 24 h, 5% VF (Ectocervical explants; 25 mM): No Tox
- Ectocervix: single exposure (MTT, Histology, CC) 24 h, No VF (Ectocervical explants; 25 mM): No Tox
- Ectocervix: single exposure (MTT, Histology, CC) 24 h, 5% VF (Ectocervical explants; 50 mM): No Tox
- Ectocervix: single exposure (MTT, Histology, CC) 24 h, No VF (Ectocervical explants; 50 mM): No Tox
- Ectocervix: single exposure (MTT, Histology, CC) 24 h, 5% VF (Ectocervical explants; 100 mM): No Tox
- Ectocervix: single exposure (MTT, Histology, CC) 24 h, No VF (Ectocervical explants; 100 mM): No Tox
- Non-toxic concentrations in ectocervix MTT and histology 24 hr (Ectocervical explants): 100 mM
- inhibition of C. trachomatis infection (in words) (C. trachomatis): exception
- Non-toxic concentrations based on rat vaginal irritation study 10 days exposure (10 days exposure): 50 mM

Compound: CC(=O)[O-].CC(=O)[O-].[Zn+2] [ZA, zinc acetate]
- MCC 10% AB Serum (N. gonorrhoeae): 100 mM
- MCC 30% AB Serum (N. gonorrhoeae): >100 mM
- MCC (N. gonorrhoeae): 100 mM
- MCC No Serum (N. gonorrhoeae): 100 mM
- Average Motility Reduction (human sperm [2]; [5]): 63.47%
- Average CI (human sperm [2]; [5]): 0.48
- Average Motility Reduction (human sperm [2]; [6]): 73.77%
- Average CI (human sperm [2]; [6]): 0.47
- Average Motility Reduction (human sperm [2]; [7]): 80.09%
- Average CI (human sperm [2]; [7]): 0.45
- EC50 (human sperm [2]; single API (CS/ZA/LA study), saline, 5 min with fresh semen, % motility vs saline control): 19 mM
- EC90 (human sperm [2]; single API (CS/ZA/LA study), saline, 5 min with fresh semen, % motility vs saline control, read-out: EC90): 33.2 mM
- EC50 (HSV-2 G; single API): 0.78 mM
- MCC (G. vaginalis): > 100 mM
- Ectocervix: single exposure (MTT, Histology, CC) 24 h, 5% VF (Ectocervical explants; 100 mM): No Tox
- Ectocervix: single exposure (MTT, Histology, CC) 24 h, No VF (Ectocervical explants; 100 mM): No Tox
- VEC-100: Single exposure (MTT, TEER and LDH) 24 h, No VF (VEC-100 tissue [4]; 100 mM): No Tox
- EC50 (HIV-1BaL; [8]): 1.96 mM

Compound: CC(O)C(=O)O (racemic) [LA, lactic acid]
- EC90 (human sperm [1]; Homo sapiens, Sperm, 0.5 h, single API, 1% methylcellulose, 30 minutes, read-out: Inhibition of Sperm Mucus Penetration EC90 [95% CI] (Migration of vanguard sperm in methyl cellulose spiked with API)): 5 mM
- EC90 (human sperm [1]; Homo sapiens, Sperm, Table 16, concentration of the named API in the CS + ZL + LA combination (cf. Table 7), read-out: Anti-Sperm concentrations Sperm-mucus penetration (EC90)): 1.5 mM
- MCC 10% AB Serum (N. gonorrhoeae): 111 mM
- MCC 30% AB Serum (N. gonorrhoeae): 111 mM
- MCC (N. gonorrhoeae): 111 mM
- MCC No Serum (N. gonorrhoeae): 111 mM
- Average Motility Reduction (human sperm [2]; [5]): 54.75%
- Average Motility Reduction (human sperm [2]; [6]): 70.74%
- Average Motility Reduction (human sperm [2]; [7]): 91.84%
- EC50 (human sperm [2]; Homo sapiens, Sperm, 5 min, single API (CS/ZA/LA study), saline, 5 min with fresh semen, % motility vs saline control): 20.5 mM
- EC90 (human sperm [2]; Homo sapiens, Sperm, 5 min, single API (CS/ZA/LA study), saline, 5 min with fresh semen, % motility vs saline control, read-out: EC90): 28.7 mM
- EC90 (human sperm [2]; Homo sapiens, Sperm, Table 16, concentration of the named API in the CS + ZL + LA combination (cf. Table 7), read-out: Anti-Sperm concentrations Total motility (EC90)): 21 mM
- EC50 (human sperm [2]; Homo sapiens, Sperm, single API (CS/ZL/LA study)): 21 mM
- EC90 (human sperm [2]; Homo sapiens, Sperm, single API (CS/ZL/LA study), read-out: EC90): 29 mM
- EC90 (human sperm [2]; Homo sapiens, Sperm, single API, read-out: Reduction of Sperm Motility EC90 [95% CI] (concentration to inhibit total sperm motility)): 29 mM
- MIC (concentration to inhibit progressive sperm motility) (human sperm [2]; single API): 20 mM
- EC50 (HSV-2 G; Human alphaherpesvirus 2, single API): 0.16 mM
- VEC-100 single exposure (MTT, TEER and LDH) day 1-5 24 h No VF (VEC-100 tissue [3]; […] mM): No Tox
- Non-toxic concentrations in VEC-100 model TEER and LDH 5 daily exposures (VEC-100 tissue [3]): 22 mM
- MCC (G. vaginalis): 111 mM
- Ectocervix: single exposure (MTT, Histology, CC) 24 h, 5% VF (Ectocervical explants; 111 mM): No Tox
- Ectocervix: single exposure (MTT, Histology, CC) 24 h, No VF (Ectocervical explants; 111 mM): No Tox
- Ectocervix: single exposure (MTT, Histology, CC) 24 h, 5% VF (Ectocervical explants; 222 mM): No Tox
- Ectocervix: single exposure (MTT, Histology, CC) 24 h, No VF (Ectocervical explants; 222 mM): No Tox
- Non-toxic concentrations in ectocervix MTT and histology 24 hr (Ectocervical explants): 222 mM
- Non-cidal concentrations in lactobacillus MCC 30 min (lactobacillus): 222 mM
- concentration up to which exposure alone did not induce toxicity (VEC-100 tissue [4]; single active, 24 h single exposure, summary of ectocervix and VEC-100 findings): up to 222 mM
- Non-toxic concentrations in VEC-100 model TEER and LDH 24 h (VEC-100 tissue [4]; single treatment): 222 mM
- anti-C. trachomatis activity (in words) (C. trachomatis; LA concentrations lower than 80 mM): no activity was observed
- inhibition of C. trachomatis infection (in words) (C. trachomatis): significantly inhibited infection
- EC50 (HIV-1BaL; TZM-bl): 2.5 mM
- Non-toxic concentrations based on rat vaginal irritation study 10 days exposure (rat, in vivo, 10 days): 200 mM

Compound: O=S(=O)([O-])[O-].[Cu+2] [CS, copper sulfate]
- EC50 (HSV-2 G; single API): 0.009 mM
- inhibition of C. trachomatis infection (in words) (C. trachomatis): significantly inhibited infection
- EC50 (HIV-1BaL; [8]): 0.183 mM

Compound: Triton [reference compound]
- VEC-100 single exposure (MTT, TEER and LDH) day 1-5 24 h No VF (VEC-100 tissue [3]; control, concentration not given): Tox
